pIC50: −log10 of the molar value.
Assays:
[1] = tested on: E-selectin; assay: ELISA: inhibition of E-selectin-IgG chimera binding to 2,3 sLe^x glycolipid; parameters: species or system human; conditions: for pIC50: inhibition of binding to 2,3 sLex glycolipid
Excerpt: (§1) An ELISA assay is preferably used that employs recombinant fusion proteins composed of extracellular portions of the human selectins joined to human immunoglobulin heavy chain CH3, CH2, and hinge regions. See, for example, Walz et al., Science (1990) 250:1132; Aruffo et al., Cell (1991) 67:35; Aruffo et al., Proc. Natl. Acad. Sci. USA. (1992) 89:2292. The assay is well known in the art, and generally consists of the following three steps:
(§2) I. 2,3 sLe^x glycolipid (25 picomole/well) was transferred into microtiter wells as solutions and then evaporated off. Excess, which remained unattached, was washed off with water. The wells were then blocked with 5% BSA at room temperature for an hour and then washed with PBS containing 1 mM calcium.
(§3) II. Preparation of "multivalent" receptor of the Selectin-lgG chimera was carried out by combining the respective chimera (1 μg/mL) with biotin labelled goat F(ab')2 anti-human IgG (Fc specific) and streptavidin-alkaline phosphatase diluted 1:1000 in 1% BSA-PBS (1 mM calcium) and incubating at 37° C. for 15 min. This allowed the soluble multivalent receptor complex to form. III. Potential inhibitors such as the compounds of formula I or II were allowed to react with the soluble receptor at 37° C. for 45 min. This test assumes that optimal binding, between the soluble phase receptor complex and the inhibitor (non natural ligand), would have occurred within this time frame. This solution was then placed in the microtiter wells that were prepared in step I. The plate was incubated at 37° C. for 45 minutes to allow the soluble receptor to bind to its natural ligand. In the presence of a strong inhibitor only a few receptors should be free to bind to the microtiter plate coated with the natural ligand.
(§4) The positive control is the signal produced by the soluble receptor when it is allowed to react with 2,3 sLe^x glycolipid in the microtiter wells in the absence of any inhibitor. This positive control was considered 100% binding. The signal produced by the receptor that had been previously treated with an inhibitor (recorded as O.D.), was divided by the signal produced by the positive control and multiplied by 100 to calculate the % receptor bound to the well in the presence of the inhibitor. The reciprocal of this number is the % inhibition.
as §1, with “was employed” for “is preferably used”, “uses” for “employs”, “USA” for “USA.”
(§5) II. Preparation of "multivalent" receptor of the Selectin-IgG chimera was carried out by combining the respective chimera 1 μg/ml) with biotin labelled goat F(ab')2 anti-human IgG (Fc specific) and streptavidin-alkaline phosphatase diluted 1:1000 in 1% BSA-PBS (1 mM calcium) and incubating at 37° C. for 15 min. This allowed the soluble multivalent receptor complex to form.
(§6) III. Potential inhibitors such as compounds of formula I or II were allowed to react with the soluble receptor at 37° C. for 45 min. This test assumes that optimal binding, between the soluble phase receptor complex and the inhibitor (non natural ligand), would have occurred within this time frame. This solution was then placed in the microtiter wells that were prepared in step I. The plate was incubated at 37° C. for 45 minutes to allow the soluble receptor to bind to its natural ligand. In the presence of a strong inhibitor only a few receptors should be free to bind to the microtiter plate coated with the natural ligand.
(§7) The positive control is the signal produced by the soluble receptor when it is allowed to react with 2,3 sLe^x glycolipid in the microtiter wells in the absence of any inhibitor. This was considered 100% binding. […]

[2] = tested on: L-selectin; assay: ELISA: inhibition of L-selectin-IgG chimera binding to 2,3 sLe^x glycolipid; parameters: species or system human; conditions: for inhibition of L-selectin binding to 2,3 sLe^x glycolipid: FIG. 5 and FIG. 6, result in words; for pIC50: inhibition of binding to 2,3 sLex glycolipid
Excerpt: as §1, §2, §3, §4
as §1, with “was employed” for “is preferably used”, “uses” for “employs”, “USA” for “USA.”
as §5, §6, §7

[3] = tested on: P-selectin; assay: ELISA: inhibition of P-selectin-IgG chimera binding to 2,3 sLe^x glycolipid; parameters: species or system human; conditions: inhibition of binding to 2,3 sLex glycolipid
Excerpt: as §1, §2, §3, §4
as §1, with “was employed” for “is preferably used”, “uses” for “employs”, “USA” for “USA.”
as §5, §6, §7

[4] = tested on: P-selectin; assay: Flow cytometric assay: inhibition of P-selectin-IgG binding to HL-60 cells; assay type: cell-based, human; parameters: unit of the concentration uncertain
Protocol: The interaction of P-selectin and its cellular ligand was studied using a flow cytometric assay (Erbe, D. V. et al., J. Cell Biol. (1993) 120:1227). HL60 cells (maintained in high glucose DME plus 10% Hyclone FBS) were used in this assay. Before staining with P-selectin-IgG the cells were preincubated in Dulbecco's PBS/1% BSA/0.1% sodium azide/1% normal rabbit serum (staining medium) for 30-60 mins on ice. After this initial incubation, 1 μg of P-selectin-IgG was added to 100 μl aliquots of 10^6 cells and incubated for 30-60 mins on ice. The cells were when washed with staining medium and resuspended in 100 μl of staining medium to which was added 2 μl of a phycoerythrin-conjugated F(ab')^2 goat anti-human IgG (Fc specific). The cells were incubated for 15-30 mins on ice, washed twice with staining medium, and resuspended in 0.5 ml of staining medium before flow cytometric analysis on a FACScan (Becton Dickinson & Co., Mountain View, Calif.). To determine that the staining was an interaction of P-selectin with its ligand, the staining was also done in the presence of 10 mM EGTA. To determine the protease sensitivity and the requirement for sialic acid of this interaction, HL-60 cells in D-PBS and 1% BSA were incubated with either trypsin or Arthrobacter or Clostridium sialidases at 37° C. before resuspending in staining medium. To examine the ability of various carbohydrates to inhibit staining, 50 μg/ml fucoidin (Sigma Immunochemicals, St. Louis, Mo.), 50 μg/ml dextran sulfate (Pharmacia Fine Chemicals, Piscataway, N.J.), 10 mg/ml mannose-1-phosphate (Sigma Immunochemicals), or 10 mg/ml mannose-6-phosphate (Sigma Immunochemicals) was added to cells immediately before the addition of the P-selectin chimera. Each carbohydrate was then present until the cells were washed before the addition of the second stage antibody. A potential complication of this FACS assay arose from the use of selectin-IgG chimeras to stain cells which bear human IgG Fc receptors (FcγR; Fanger, M. W., et al., Immunol. Today (1989) 10:92). Adding rabbit IgG (in the form of normal rabbit serum) to the assay medium blocked this binding in most cases.

CC(=O)N[C@H]1[C@H]([C@H](O)[C@H](O)CO)OC(OCCCCCCOC2O[C@@H](C)[C@@H](O)[C@@H](O)[C@@H]2O)(C(=O)O)C[C@@H]1O (stereo partly drawn) [Compound 14, O-Hexamethylene linked α,β-NeuNAc and α,β-L-Fucopyranose]
inhibition of E-selectin binding to 2,3 sLe^x glycolipid ([1]; FIG. 4, result in words): inhibit E-selectin binding to 2,3 sLe^x glycolipid | inhibition of L-selectin binding to 2,3 sLe^x glycolipid [2]: inhibit L-selectin binding in a concentration dependent manner

CC(=O)N[C@H]1[C@H]([C@H](O)[C@H](O)CO)OC(OCCCCCCOC2O[C@@H](C)[C@@H](O)[C@@H](O)[C@@H]2O)(C(=O)O)C[C@@H]1O (stereo partly drawn) [Compound 15, O-Hexamethylene linked α,β-NeuNAc and α,β-L-Fucopyranose]
inhibition of L-selectin binding to 2,3 sLe^x glycolipid [2]: blocks L-selectin binding at concentrations lower than 7 and 14

CC(=O)NC1C(O)CC(OC2C(O)C(CO)OC(OCCOC3OC(C)C(O)C(O)C3O)C2O)(C(=O)O)OC1C(O)C(O)CO [Compound 28, [O-(α-L-fucopyranosyl)-ethyl]3-O-(α-Neu5Ac)-β-D-galactopyranoside]
pIC50 [1]: < 2.40

CCCOCC(CO[C@@H]1O[C@H](CO)[C@H](O)[C@H](OC(C)C(=O)O)[C@H]1O)O[C@@H]1O[C@@H](C)[C@@H](O)[C@@H](O)[C@@H]1O (stereo partly drawn) [Compound 32, 1-O-(3-O-α-carboxyethyl-β-D-galactopyranosyl)-2-O-(α-L-fucopyranosyl)-3-O-(n-propyl)-propane]
pIC50 [1]: 2.70 | pIC50 [2]: ≥ 2.40

C[C@@H]1O[C@@H](CCOc2ccc3cc(C(=O)O)ccc3c2)[C@@H](O)[C@H](O)[C@@H]1O [Compound 51, 1-Deoxy-1-α-(2-Carboxy-Naphthyl-6-Oxyethyl)-L-Fucose]
pIC50 [1]: > 3.30 | pIC50 [2]: > 3.00 | pIC50 [3]: > 3.30

COc1ccc(-c2c(C(=O)O)oc3cc(OCC[C@@H]4O[C@@H](C)[C@@H](O)[C@@H](O)[C@@H]4O)cc(O)c3c2=O)cc1 [Compound 54, 2-Carboxy-5-Hydroxy-7-(1-Deoxy-1-α-Fucosyl-Ethyleneoxy)-4-Methoxy Isoflavone]
pIC50 [1]: > 3.30 | pIC50 [2]: < 2.40 | pIC50 [3]: > 3.30

C[C@@H]1O[C@@H](CCOc2ccc3cc(OCC[C@@H]4O[C@@H](C)[C@@H](O)[C@@H](O)[C@@H]4O)c(C(=O)O)cc3c2)[C@@H](O)[C@H](O)[C@@H]1O [Compound 57, 3,7-Di-(1-Deoxy-1-α-Fucosyl-Ethyleneoxy)-2-Naphthoic Acid]
pIC50 [1]: < 2.40 | pIC50 [2]: ~2.70 | pIC50 [3]: > 3.30

C[C@@H]1O[C@@H](CCOc2cc3c(OCC[C@@H]4O[C@@H](C)[C@@H](O)[C@@H](O)[C@@H]4O)cccc3cc2C(=O)O)[C@@H](O)[C@H](O)[C@@H]1O [Compound 58, 3,5-Di-(1-Deoxy-1-α-Fucosyl-Ethyleneoxy)-2-Naphthoic Acid]
pIC50 [1]: < 2.40 | pIC50 [2]: ~2.40 | pIC50 [3]: 2.70

COC(=O)C(C)c1ccc2cc(OCC[C@@H]3O[C@@H](C)[C@@H](OC(C)=O)[C@@H](OC(C)=O)[C@@H]3OC(C)=O)ccc2c1 (stereo partly drawn) [Compound 60]
pIC50 [1]: < 2.40 | pIC50 [2]: 2.40 | pIC50 [3]: < 2.70

CC(C(=O)OCC1CO1)c1ccc2cc(OCC(O)CO)ccc2c1 (stereo not drawn) [Compound 64]
pIC50 [1]: < 2.40 | pIC50 [2]: < 2.40 | pIC50 [3]: < 2.40

C[C@@H]1O[C@@H](CCOc2ccc(C(=O)O)cc2)[C@@H](O)[C@H](O)[C@@H]1O [Compound 67, 1-Deoxy-1-α-(p-Carboxy-Phenoxyethyl)-L-Fucose]
pIC50 [1]: > 3.30 | pIC50 [2]: < 2.70 | pIC50 [3]: > 3.30

C[C@@H]1O[C@@H](CCOc2ccccc2C(=O)O)[C@@H](O)[C@H](O)[C@@H]1O [Compound 68, 1-Deoxy-1-α-(o-Carboxy-Phenoxyethyl)-L-Fucose]
pIC50 [1]: ~2.40 | pIC50 [2]: < 2.40 | pIC50 [3]: > 3.30

C[C@@H]1O[C@@H](CCOc2cccc(C(=O)O)c2)[C@@H](O)[C@H](O)[C@@H]1O [Compound 69, 1-Deoxy-1-α-(m-Carboxy-Phenoxyethyl)-L-Fucose]
pIC50 [1]: < 2.40 | pIC50 [2]: < 2.40 | pIC50 [3]: < 2.40

C[C@@H]1O[C@@H](CCc2cccc(C(=O)NC(Cc3ccccc3)C(=O)O)c2)[C@@H](O)[C@H](O)[C@@H]1O (stereo partly drawn) [Compound 74, 1-Deoxy-1-α-(m-Carboxy-Phenylethyl)-L-Fucose-Phenylalanine Amide]
pIC50 [1]: < 2.40 | pIC50 [2]: < 2.40 | pIC50 [3]: < 2.40

C[C@@H]1O[C@@H](CCc2ccc(C(=O)NC(Cc3ccccc3)C(=O)O)cc2)[C@@H](O)[C@H](O)[C@@H]1O (stereo partly drawn) [Compound 75, 1-Deoxy-1-α-(p-Carboxy-Phenylethyl)-L-Fucose-Phenylalanine Amide]
pIC50 [1]: < 2.40 | pIC50 [2]: < 2.40 | pIC50 [3]: 2.40

C[C@@H]1O[C@@H](CCc2ccccc2C(=O)NC(Cc2ccccc2)C(=O)O)[C@@H](O)[C@H](O)[C@@H]1O (stereo partly drawn) [Compound 76, 1-Deoxy-1-α-(o-Carboxy-Phenylethyl)-L-Fucose-Phenylalanine Amide]
pIC50 [1]: < 2.40 | pIC50 [2]: < 2.40 | pIC50 [3]: < 2.40

C[C@@H]1O[C@@H](OCCCCCCOS(=O)(=O)O)[C@@H](O)[C@H](O)[C@@H]1O [Compound 77, 6-O-sulfo-hexanyl-α-L-fucopyranoside]
pIC50 [1]: 2.52 to 2.70 | pIC50 [2]: 2.52 to 2.70 | pIC50 [3]: ~3.30 | Inhibition (%) of P-selectin-IgG binding to HL-60 cells ([4]; 10 (unit uncertain)): 50% | Inhibition (%) of P-selectin-IgG binding to HL-60 cells ([4]; 100 (unit uncertain)): 50% | Inhibition (%) of P-selectin-IgG binding to HL-60 cells ([4]; 200 (unit uncertain)): 60%
